Measured values from patent publication US20230103631A1, “PEPTIDES AS SELECTIVE GIP RECEPTOR AGONISTS” (Sanofi, priority 2020, published 2023).
*1 amine or outer side, *2 acyl side, *3 side chain or, on linkers, in order; H or OH if unused. Where a SMILES comes first, the peptide text is derived from it. Side-chain parts run from the residue outwards. [ ]: non-standard residue; d: D form. The star is where a group is joined. C18 diacid = O=C(O)CCCCCCCCCCCCCCCCC(=O)*; γGlu = O=C(O)[C@H](CCC(=O)[*:2])N[*:1]; AEEA = NCCOCCOCC(=O)O; Aib = CC(C)(N)C(=O)O

What was measured:
[1] = target: T1, human GIP receptor (hGIPR) (Homo sapiens, UniProt P48546); test: Binding assay, displacement of [125I]GIP from HEK-293 membranes expressing GIPR; settings: [125I]GIP displacement
T1 sequence (P48546 22-466): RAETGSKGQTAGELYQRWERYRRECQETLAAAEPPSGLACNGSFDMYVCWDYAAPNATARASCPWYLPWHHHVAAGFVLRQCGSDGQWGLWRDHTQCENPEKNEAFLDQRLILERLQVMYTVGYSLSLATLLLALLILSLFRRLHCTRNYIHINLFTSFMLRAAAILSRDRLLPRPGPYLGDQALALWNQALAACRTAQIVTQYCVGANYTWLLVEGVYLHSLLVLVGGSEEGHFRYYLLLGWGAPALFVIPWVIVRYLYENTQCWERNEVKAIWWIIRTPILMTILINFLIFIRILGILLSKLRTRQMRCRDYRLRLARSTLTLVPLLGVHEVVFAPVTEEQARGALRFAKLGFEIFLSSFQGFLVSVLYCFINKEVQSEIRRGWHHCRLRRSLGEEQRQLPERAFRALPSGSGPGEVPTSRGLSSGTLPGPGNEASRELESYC
Description: HEK-293 cells recombinantly over-expressing GIPR or GLP-1R were grown to 50% confluency, washed with warm 1×PBS (Gibco) and detached in HEPES/EDTA-buffer (100 mM HEPES pH 7.5, 5 mM EDTA). Cells were harvested by centrifugation at 4° C. and 3000×g and the pellets were stored at −80° C. until further processing.
After thawing on ice, pellets were resuspended in HEPES/EDTA-buffer and homogenized on ice for 1 min using Ultra-Turray T25. After subsequent sonification the cell debris was removed by centrifugation at 1000×g and 4° C. Supernatants were then ultra-centrifuged at 100000×g and 4° C. under vacuum for 30 min. Pellets were resuspended in HEPES/EDTA/NaCl-buffer (20 mM HEPES, 1 mM EDTA, 150 mM NaCl; add 1 Complete Mini Protease inhibitor cocktail to 10 ml buffer) and protein content was determined via BCA-Protein assay.

[2] = target: T2, human GIP receptor (Homo sapiens, UniProt P48546); test: cAMP HTRF assay in human adipocytes endogenously expressing the human GIP receptor; type: cell-based; settings: for EC50: read-out: hGIPR EC50; for Emax: read-out: hGIPR Emax
T2 construct: human adipocytes endogenously expressing the human GIP receptor; host or cells: human preadipocytes (Lonza) differentiated to adipocytes
T2 sequence (P48546 22-466): T1 sequence (P48546 22-466)
Description: For this, one vial of human preadipocytes (˜10^6 cells; Lonza) was thawed in a T-75 cell culture dish.
After 3 days, the cells were washed with PBS and 1.5 ml Trypsin, incubated for 4 min, then resuspended in medium, centrifugated for 10 min @ 300 rcf RT, resuspended again and distributed to four T-75 cell culture dishes.
After 5 days, the cells were washed with PBS and 1.5 ml Trypsin, incubated for 4 min, then resuspended in medium, centrifugated for 10 min @ 300 rcf RT, resuspended again and sawn in T-75 dishes (2.5×10^6 cells per dish) in 15 ml Differentiation medium each.
After 6 days of differentiation, 5000 cells per well were dispensed on a 96-well plate (#CLS3694 from Corning®, Sigma-Aldrich). For measurement of cAMP generation, 25 μL of test compound was added to each well of the 96-well plate, followed by incubation for 30 min at room temperature.
The cAMP generated following test compound stimulation was determined using a kit from Cisbio Corp. based on HTRF (Homogenous Time Resolved Fluorescence). The cAMP assay was performed according to manufacturer's instructions (Cisbio).
The cAMP content of cells was determined using a kit from Cisbio Corp. based on HTRF (Homogenous Time Resolved Fluorescence).

[3] = ThT assay for the assessment of physical stability; type: physicochemical; settings: ThT buffer system A: 100 mM phosphate buffer pH 7.4; 3 mg/ml, 37° C.
Source text: Low physical stability of a peptide solution may lead to amyloid fibril formation, which is observed as well-ordered, thread-like macromolecular structures in the sample, which eventually may lead to gel formation. Thioflavin T (ThT) is widely used to visualize and quantify the presence of misfolded protein aggregates [Biancalana et al., Biochim. Biophys. Acta 2010, 1804(7), 1405]. […] Enzymol. 1999, 309, 274]. The time course for fibril formation often follows the characteristic shape of a sigmoidal curve and can be separated into three regions: a lag phase, a fast growth phase, and a plateau phase.
The typical fibril formation process starts with the lag phase in which the amount of partially folded peptide turned into fibrils is not significant enough to be detected. The lag-time corresponds to the time the critical mass of the nucleus is built. Afterwards, a drastic elongation phase follows, and fibril concentration increases rapidly.
Investigations were carried out to determine fibrillation tendencies under stress conditions by shaking at 37° C. within Fluoroskan Ascent FL or Fluoroskan Ascent.
For the tests in Fluoroskan Ascent (FL), 200 μl sample were placed into a 96-well mictrotiter plate PS, flat bottom, Greiner Fluotrac No. 655076. Plates were sealed with Scotch Tape (Qiagen). Samples were stressed by continuous cycles of 10 sec shaking at 960 rpm and 50 sec rest period at 37° C. The kinetic was monitored by measuring fluorescence intensity every 20 min.
Peptides were diluted in a buffer system to a final concentration of 3 mg/ml. 20 μl of a 10.1 mM ThT solution in H2O were added to 2 ml of peptide solution to receive a final concentration of 100 μM ThT. For each sample eight replicates were tested.
ThT buffer system A) 100 mM phosphate buffer pH 7.4
ThT buffer system B) 100 mM phosphate buffer pH 7.4, 2.7 mg/ml m-cresol
Lag time in hours (h) in Thioflavin T (ThT) assay of peptide samples was determined in ThT buffer system A as described in Methods.

[4] = Pharmacokinetic evaluation in rats; type: in vivo; settings: male, SD, rat, plasma
Description: Compounds were administered in a suitable buffer system, e.g. PBS buffer solution at pH7.4 or DPBS solution at concentrations of 0.05, 0.1, 0.5 or 1 mg/ml depending on dose, species and administration volume.
Male SD rats were dosed 0.25 mg/kg, 0.5 mg/kg or 1 mg/kg intravenously (i.v.) or subcutaneously (s.c.). Blood samples were collected after 0.08, 0.25, 0.5, 1, 2, 4, 8, 24, 32, and 48 h post i.v. application and 0.25, 0.5, 1, 2, 4, 8, 24, 32, and 48 h post s.c. application, respectively. Plasma samples were analyzed after protein precipitation via liquid chromatography mass spectrometry (LC/MS). PK parameters and half-life were calculated using Phoenix-WinNonlin 8.1 using a non-compartmental model and linear trapezoidal interpolation calculation.
Pharmacokinetic profiles were determined as described in Methods.

Row | Compound | IC50 [1] | EC50 [2] | Emax [2] | Increase in FI [3] | Lag time before increase [3] | AUC(0-t) ([4]; iv, 0.25 mg/kg i.v.) | Cmax ([4]; iv, 0.25 mg/kg i.v.) | half-life ([4]; iv, 0.25 mg/kg i.v.) | clearance ([4]; iv, 0.25 mg/kg i.v., read-out: CI (converted)) | AUC(0-t) ([4]; sc, 0.5 mg/kg s.c.) | Cmax ([4]; sc, 0.5 mg/kg s.c.) | bioavailability ([4]; sc, 0.5 mg/kg s.c.) | half-life ([4]; sc, 0.5 mg/kg s.c.)
1 | CC[C@H](C)[C@H](NC(=O)[C@H](CCCNC(=N)N)NC(=O)[C@H](CC(=O)O)NC(=O)[C@H](CCCCNC(=O)COCCOCCNC(=O)COCCOCCNC(=O)CC[C@H](NC(=O)CCCCCCCCCCCCCCCCC(=O)O)C(=O)O)NC(=O)C(C)(C)NC(=O)[C@@H](NC(=O)[C@H](CO)NC(=O)[C@H](CC(C)C)NC(=O)[C@H](CC(=O)O)NC(=O)[C@H](CO)NC(=O)[C@@H](NC(=O)[C@H](Cc1ccccc1)NC(=O)[C@@H](NC(=O)CNC(=O)[C@H](CCC(=O)O)NC(=O)C(C)(C)NC(=O)[C@@H](N)Cc1ccc(O)cc1)[C@@H](C)O)[C@@H](C)CC)[C@@H](C)CC)C(=O)N[C@@H](Cc1c[nH]cn1)C(=O)N[C@@H](CCC(N)=O)C(=O)NC(C)(C)C(=O)N[C@@H](CCC(=O)O)C(=O)N[C@@H](Cc1ccccc1)C(=O)N[C@H](C(=O)N[C@@H](CCC(=O)O)C(=O)N[C@@H](Cc1c[nH]c2ccccc12)C(=O)N[C@@H](CC(C)C)C(=O)N[C@@H](CC(C)C)C(=O)N[C@@H](C)C(=O)N[C@@H](CCC(N)=O)C(=O)NCC(=O)N1CCC[C@H]1C(=O)N[C@@H](CO)C(=O)N[C@@H](CO)C(=O)NCC(=O)N[C@@H](C)C(=O)N1CCC[C@H]1C(=O)N1CCC[C@H]1C(=O)N1CCC[C@H]1C(=O)N[C@@H](CO)C(N)=O)[C@@H](C)CC [SEQ ID NO: 4, H2N-Y-Aib-E-G-T-F-I-S-D-I-S-I-Aib-K[{AEEA}2-gGlu-C18OH]-D-R-I-H-Q-Aib-E-F-I-E-W-I-L-A-Q-G-P-S-S-G-A-P-P-P-S-NH2] (H-Y[Aib]EGTFISDLSI[Aib]K([AEEA-AEEA-γGlu-C18 diacid])DRIHQ[Aib]EFIEWLLAQGPSSGAPPPS-NH2) | 0.2 nM | 0.5 nM | 116% | no | >45 h | 50200 ng·h/mL | 6890 ng/mL | 12.3 h | 4.68 mL/h/kg | 44400 ng·h/mL | 1270 ng/mL | 52% | 16.5 h
2 | CC[C@H](C)[C@H](NC(=O)[C@H](CCCNC(=N)N)NC(=O)[C@H](CC(=O)O)NC(=O)[C@H](CCCCNC(=O)CNC(=O)CNC(=O)CNC(=O)CC[C@H](NC(=O)CCCCCCCCCCCCCCCCC(=O)O)C(=O)O)NC(=O)C(C)(C)NC(=O)[C@@H](NC(=O)[C@H](CO)NC(=O)[C@H](CC(C)C)NC(=O)[C@H](CC(=O)O)NC(=O)[C@H](CO)NC(=O)[C@@H](NC(=O)[C@H](Cc1ccccc1)NC(=O)[C@@H](NC(=O)CNC(=O)[C@H](CCC(=O)O)NC(=O)C(C)(C)NC(=O)[C@@H](N)Cc1ccc(O)cc1)[C@@H](C)O)[C@@H](C)CC)[C@@H](C)CC)C(=O)N[C@@H](Cc1c[nH]cn1)C(=O)N[C@@H](CCC(N)=O)C(=O)NC(C)(C)C(=O)N[C@@H](CCC(=O)O)C(=O)N[C@@H](Cc1ccccc1)C(=O)N[C@H](C(=O)N[C@@H](CCC(=O)O)C(=O)N[C@@H](Cc1c[nH]c2ccccc12)C(=O)N[C@@H](CC(C)C)C(=O)N[C@@H](CC(C)C)C(=O)N[C@@H](C)C(=O)N[C@@H](CCC(N)=O)C(=O)NCC(=O)N1CCC[C@H]1C(=O)N[C@@H](CO)C(=O)N[C@@H](CO)C(=O)NCC(=O)N[C@@H](C)C(=O)N1CCC[C@H]1C(=O)N1CCC[C@H]1C(=O)N1CCC[C@H]1C(=O)N[C@@H](CO)C(N)=O)[C@@H](C)CC [SEQ ID NO: 5, H2N-Y-Aib-E-G-T-F-I-S-D-I-S-I-Aib-K[{Gly}3-gGlu-C18OH]-D-R-I-H-Q-Aib-E-F-I-E-W-I-L-A-Q-G-P-S-S-G-A-P-P-P-S-NH2] (H-Y[Aib]EGTFISDLSI[Aib]K([Gly-Gly-Gly-γGlu-C18 diacid])DRIHQ[Aib]EFIEWLLAQGPSSGAPPPS-NH2) | 0.1 nM | 0.5 nM | 137% | no | >45 h |  |  |  |  |  |  |  | 
